Test results: patent US8999938B2, “Ophthalmic lipophilic drug delivery vehicle formulations” (GNT, LLC, priority 2013, dated 2015)
Like-named read-outs stand apart in the source and are kept apart here.

Tests used:
[1] = for max soluble concentration: in water
From the text: The solubility of α-2 agonists, in particular, decreases exponentially at an increased pH.

[2] = From the text: Oily vehicles such as castor oil solubilize, but these have poor compliance.

max soluble concentration ([1]; pH solution 6.0): 0.195%
max soluble concentration ([1]; pH solution 6.4): 0.060%
max soluble concentration ([1]; pH solution 7.0): 0.023%
max soluble concentration ([1]; pH solution 7.4): 0.015%
max soluble concentration ([1]; pH solution 8.0): 0.013%
degree of solubility ([1]; pH of 4.0 to 6.0): very high degree of solubility
concentration solubilized in the provided compositions [2]: ≥ 0.15%
Structure (SMILES): Cc1cccc([C@H](C)c2cnc[nH]2)c1C [dexmedetomidine]
